Experimental data published in patent US10668024B2, “Mesoporous silica nanoparticles for biomedical applications” (The Regents of the University of California, priority 2007, dated 2020).

Tests used:
cancer cells = details: relative to CPT; cited from earlier work
PANC-1 cells [1] = assay: Cell morphology analysis by light microscopy; details: PANC-1, paclitaxel dissolved in DMSO
PANC-1 cells [2] = assay: Confocal microscopy of FMSN uptake, Example 3; assay type: cell-based, human; details: 0.1% sodium azide, sucrose 0.45 M, bafilomycin A 0.05 μM, nocodazole 2 μg/ml, brefeldin A 5 μg/ml
Description: The fluorescence of FITC was used to monitor cellular uptake of FMSN. Cells were incubated with FMSN for 3 h at 37° C. under a 5% CO2 95% air atmosphere in an 8-chamber Lab-Tek chamber slide system with covers (Nalge Nunc International), washed with phosphate buffered saline (PBS) and examined with confocal microscopy (λex=470 nm) (Carl Zeiss LSM 310 Laser Scanning Confocal microscopy). To examine the distribution of FMSN within the cells, the same cells were then incubated with 6 μM of Acridine Orange (AO) (Sigma), which specifically stains lysosomes/endosomes to red (Canonico, P. G. and Bird, J. W. C. (1969), J. Cell Biol. 43, 367-371), for 1 h in DMEM without phenol red, washed with PBS, and examined by confocal microscopy again (λex=488 nm). The emission light was passed through a 560-nm short-pass dichroic mirror. The green emission was passed through a 530-nm bandpass filter, and the red emission was passed through a 600-nm longpass filter. Both emissions were simultaneously collected using two photomultiplier tubes.
To determine whether the uptake of FMSN into cancer cells was energy-dependent, the cells were incubated with FMSN under different metabolic conditions. The uptake assay was performed in the presence of sodium azide, sucrose, bafilomycin A, nocodazole or brefeldin A. Cells were seeded on 8-chamber Lab-Tek chamber slides for 24 h, then preincubated at 4° C. with either 0.1% sodium azide, or sucrose (0.45 M), or bafilomycin A (0.05 μM), or nocodazole (2 μg/ml), or brefeldin A (5 μg/ml) for 10 min. The FMSN suspension in PBS was then added and the cells were incubated for additional 3 h at 37° C. The uptake was stopped by washing the cells three times with cold PBS, and then the cells were fixed with 4% paraformaldehyde in PBS for 1 h at room temperature and washed with PBS. The chambers of slides were removed, and each slide was mounted with fluorescence-free glycerol-based mounting medium (Fluoromount-G; Southern Biotechnology Associates, USA) by cover glasses. Cells were analyzed by confocal microscopy (Carl Zeiss LSM 310 Laser Scanning Confocal microscopy).

PANC-1 cells [3] = assay: Apoptosis assay (propidium iodide/Hoechst 33342, DNA fragmentation, caspase-3 Western blot); assay type: cell-based, human; details: 24 hours
Description: Cell death was also examined using the propidium iodide and Hoechst 33342 double-staining method. The cells were stained with propidium iodide/Hoechst 33342 (1:1) for 5 minutes and then examined using fluorescence microscope. DNA fragmentation assay was also performed. PANC-1 cells were treated for 24 hours with: (1) 100 nM CPT in PBS, (2) 100 nM CPT loaded in FMSN (suspended in PBS), or (3) 64 μg/ml nonloaded FMSN in PBS, then washed twice with ice-cold PBS and collected by trypsinization. The cell pellets were resuspended in 500 μl of Tris-EDTA buffer (20 mM Tris-HCl [pH 8.0], 20 mM EDTA) containing 0.1% SDS and proteinase K (0.5 mg/ml) at 50° C. for 2 hours and then treated with RNase A (0.02 mg/ml) for 30 minutes at 37° C. DNA was extracted using phenol/chloroform and ethanol precipitation and was dissolved in distilled water, separated on a 2% agarose gel, and stained with ethidium bromide.
Proteins were separated by gel electrophoresis on a polyacrylamide gel containing sodium dodecyl sulfate (SDS), and then transferred to nitrocellulose membranes. The membranes were blocked with tris buffer saline (TBS) containing 5% (W/V) skim milk. […] Bands were detected with an ECL system (Amersham Pharmacia Biotech K.K., UK).

PANC-1 cells [4] = assay: Cell death assay (WST-8), Example 2; assay type: cell-based, human
Text: (§1) Human cancer cell lines, PANC-1, AsPC-1, Capan-1 (pancreatic), MKN45 (gastric), and SW480 (colon) were obtained from the American Type Culture Collection and were maintained in Dulbecco's modified Eagle's medium (DMEM) (GIBCO) or RPMI-1640 (Cellgro) supplemented with 10% fetal calf serum (Sigma), 2% L-glutamine, 1% penicillin, and 1% streptomycin stock solutions. The media were changed every 3 days, and the cells were passaged by trypsinization before confluence.

MKN-45 cells = assay: Cell death assay (WST-8), Example 2; assay type: cell-based, human
Text: as §1

Capan-1 cells = assay: Cell death assay (WST-8), Example 2; assay type: cell-based, human
Text: as §1

AsPc-1 cells = assay: Cell death assay (WST-8), Example 2; assay type: cell-based, human
Text: as §1

SW480 cells = assay: Cell death assay (WST-8), Example 2; assay type: cell-based, human
Text: as §1

PANC-1 cells [5] = assay: Fluorescence and confocal microscopy, Example 2; assay type: cell-based, human; details: suspension of CPT in PBS, 100 nM, 3 hours incubation
Text: as §1
The fluorescence of the nanoparticles at 470 nm excitation wavelength was used to confirm the cellular uptake of FMSN. […] The cells were then monitored by fluorescence microscope with an excitation wavelength at 470 nm. To examine the location of FMSN within the cells, Acridine Orange (AO) (Sigma) and lysoSensor green DND-189 (Invitrogen) were used to monitor lysosomes and endosomes. Cells were cultured overnight on a Lab-Tek chamber slide system (Nalge Nunc International). After the cells were incubated with FMSN for 3 hours, they were washed with PBS and examined with confocal microscope (λex=470 nm) (Carl Zeiss LSM 310 Laser Scanning Confocal microscope). […] This property allows the use of fluorescence to study the distribution of CPT inside the cells. PANC-1 cells were incubated with CPT-loaded FMSN or CPT suspended in PBS (100 nM) for 3 hours, washed with PBS 3 times, and then examined by fluorescence microscope under UV.

## CCc1c2c(nc3ccc(OC(=O)N4CCC(N5CCCCC5)CC4)cc13)-c1cc3c(c(=O)n1C2)COC(=O)[C@]3(O)CC [irinotecan]
Cancer cells
  cytotoxicity to cancer cells compared to CPT: 10%

## CC(=O)O[C@H]1C(=O)[C@@]2(C)[C@H]([C@H](OC(=O)c3ccccc3)[C@]3(O)C[C@H](OC(=O)[C@H](O)[C@@H](NC(=O)c4ccccc4)c4ccccc4)C(C)=C1C3(C)C)[C@]1(OC(C)=O)CO[C@@H]1C[C@@H]2O [paclitaxel]
PANC-1 cells [1]
  morphologic change of the cells: Cells became round and smaller

## COC(=O)Nc1nc2ccc(C(=O)c3cccs3)cc2[nH]1 [nocodazole]
PANC-1 cells [2]
  effect of preincubation with inhibitor on uptake of FMSN: significantly disrupted the uptake

## CC[C@@]1(O)C(=O)OCc2c1cc1n(c2=O)Cc2cc3ccccc3nc2-1 [CPT, camptothecin]
PANC-1 cells [3]; PANC-1, CPT dissolved in DMSO, compared with CPT-loaded FMSN
  mechanism of cell death (propidium iodide/Hoechst 33342 double staining): similar
PANC-1 cells [4]; PANC-1, CPT dissolved in DMSO, 24 h treatment + 48 h
  cytotoxicity / growth inhibition: growth inhibition of different human cancer cells was observed
PANC-1 cells [4]; PANC-1, CPT suspended in PBS, even at high concentrations
  cytotoxicity: did not show any cytotoxicity
MKN-45 cells; MKN-45, CPT dissolved in DMSO, 24 h treatment + 48 h
  cytotoxicity / growth inhibition: growth inhibition of different human cancer cells was observed
MKN-45 cells; MKN-45, CPT suspended in PBS, even at high concentrations
  cytotoxicity: did not show any cytotoxicity
Capan-1 cells; Capan-1, CPT dissolved in DMSO, 24 h treatment + 48 h
  cytotoxicity / growth inhibition: growth inhibition of different human cancer cells was observed
Capan-1 cells; Capan-1, CPT suspended in PBS, even at high concentrations
  cytotoxicity: did not show any cytotoxicity
AsPc-1 cells; AsPc-1, CPT dissolved in DMSO, 24 h treatment + 48 h
  cytotoxicity / growth inhibition: growth inhibition of different human cancer cells was observed
AsPc-1 cells; AsPc-1, CPT suspended in PBS, even at high concentrations
  cytotoxicity: did not show any cytotoxicity
SW480 cells; SW480, CPT dissolved in DMSO, 24 h treatment + 48 h
  cytotoxicity / growth inhibition: growth inhibition of different human cancer cells was observed
SW480 cells; SW480, CPT suspended in PBS, even at high concentrations
  cytotoxicity: did not show any cytotoxicity
PANC-1 cells [5]
  CPT fluorescence in cells: remained nonfluorescent

## CO/C1=C\C(C)=C\[C@@H](C)[C@@H](O)[C@@H](C)C/C(C)=C/C=C/[C@H](OC)[C@@H]([C@@H](C)[C@@H](O)[C@H](C)[C@@]2(O)C[C@@H](O)[C@H](C)[C@@H](C(C)C)O2)OC1=O [bafilomycin A]
PANC-1 cells [2]
  effect of preincubation with inhibitor on uptake of FMSN: completely suppressed the uptake

## C[C@H]1CCC/C=C/[C@@H]2C[C@H](O)C[C@H]2[C@H](O)/C=C/C(=O)O1 [brefeldin A]
PANC-1 cells [2]
  effect of preincubation with inhibitor on uptake of FMSN: did not show any effect

## OC[C@H]1O[C@@](CO)(O[C@H]2O[C@H](CO)[C@@H](O)[C@H](O)[C@H]2O)[C@@H](O)[C@@H]1O [sucrose]
PANC-1 cells [2]
  effect of preincubation with inhibitor on uptake of FMSN: suppressed the uptake

## C[S+](C)[O-] [DMSO, dimethyl sulfoxide]
PANC-1 cells [3]; PANC-1, 10% DMSO
  mechanism of cell death (propidium iodide/Hoechst 33342 double staining): induced necrosis
